Test results taken from ChEMBL document CHEMBL1201862, “PubChem BioAssay data set” (2004).
“And” between values parts separate entries of the source, which are not always exact repeats. Identical values can stand only once. The source made the active and inactive calls.

Columns and labels:
[1] = target: Cytochrome P450 2C19 (Homo sapiens, UniProt P33261); assay: Cytochrome panel assay with activity outcomes. Panel member name: p450-cyp2c19 Compounds with AC50 equal or less than 10 uM are considered active; assay type: functional
[2] = target: Cytochrome P450 2C9 (Homo sapiens, UniProt P11712)
[3] = target: Cytochrome P450 3A4 (Homo sapiens, UniProt P08684);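 further: CYP3A4 tested as one member of a cytochrome P450 panel screen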
[4] = target: T1, Cytochrome P450 1A2 (Homo sapiens, UniProt P05177)
T1 sequence (P05177 whole entry): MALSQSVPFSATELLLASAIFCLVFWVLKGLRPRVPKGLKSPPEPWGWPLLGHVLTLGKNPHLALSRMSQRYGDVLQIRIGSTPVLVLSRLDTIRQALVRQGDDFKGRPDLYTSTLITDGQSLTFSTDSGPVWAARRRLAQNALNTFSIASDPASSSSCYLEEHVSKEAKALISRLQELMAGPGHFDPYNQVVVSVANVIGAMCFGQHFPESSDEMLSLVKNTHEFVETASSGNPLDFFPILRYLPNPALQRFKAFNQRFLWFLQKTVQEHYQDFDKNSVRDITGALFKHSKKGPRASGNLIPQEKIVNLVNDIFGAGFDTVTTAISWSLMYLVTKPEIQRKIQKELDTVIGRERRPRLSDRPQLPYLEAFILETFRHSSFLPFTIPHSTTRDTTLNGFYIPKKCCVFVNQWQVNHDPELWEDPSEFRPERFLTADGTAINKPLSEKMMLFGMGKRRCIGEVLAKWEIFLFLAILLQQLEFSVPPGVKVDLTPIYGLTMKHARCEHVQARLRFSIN

[5] = Luminescence Cell-Based Dose Response HTS to Identify Activators of Luciferase Translation or Activity in H4 […] Cells. [Related pubchem assays: 1829 (Project Summary), 1814 (Primary HTS)]; assay type: functional
[6] = test system: H4; assay: Luminescence Cell-Based Dose Response HTS to Identify Activators of 5'UTR Stem-Loop Driven Prion Protein mRNA Translation in H4 Neuroglioblastoma Cells. [Related pubchem assays: 1829 (Project Summary), 1814 (Primary HTS)]; assay type: functional; conditions: Homo sapiens
[7] = Luminescence Cell-Based Dose Confirmation HTS to Identify Activators of 5'UTR Stem-Loop Driven Alpha-Synuclein mRNA Translation in H4 Neuroglioblastoma Cells. [Related pubchem assays: 1829 (Project Summary), 1814 (Primary HTS)]; assay type: functional
[8] = cells; assay type: functional
[9] = non-specific 3'UTR reporter inhibition in Clone20-Shn3RL – cell-based, Renilla luciferase, cherry-picked, counter-screen for Shn3 inhibitor project, dose response (AID 624133); assay type: functional
[10] = target: FAD-linked sulfhydryl oxidase ALR (Homo sapiens, UniProt P55789); assay: ALR-catalysed DTT oxidation blockers – biochemical, H2O2 detection, luminescence, cherry-pick, dose response (AID 493248)
[11] = viability of uninfected HEp-2 cells – cell-based, HTS, cytotoxicity control for RSV inhibitor project, dose response (AID 2410); assay type: functional; conditions: human respiratory syncytial virus
[12] = luciferase reporter signal suppression in cells – H4 neuroglioma cells, luminescence, dose response (AID 1990); assay type: functional, cell-based
[13] = Luminescence Cell-Based Dose Response HTS to Identify Inhibitors of 5'UTR Stem-Loop Driven Prion Protein mRNA Translation in H4 Neuroglioblastoma Cells. [Related pubchem assays: 1827 (Project Summary), 1813 (Primary HTS)]; assay type: functional
[14] = alpha-synuclein stem-loop luciferase translation blockers – H4 neuroglioma cells, luminescence, confirmation (AID 1988); assay type: functional, cell-based
[15] = target: T2, Heat shock factor protein 1 (Mus musculus, UniProt P38532); assay: decrease of HSF1-responsive luciferase luminescence – cell-based, NIH3T3, dose retest, confirmation (AID 2382); assay type: functional;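 further: NIH3T3 fibroblasts with HSF1-driven luciferase reporter stressed by proteasome inhibitor MG132; luminescence from HSF1-driven luciferase expression after 8 hours of MG132 stress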
T2 sequence (P38532 whole entry): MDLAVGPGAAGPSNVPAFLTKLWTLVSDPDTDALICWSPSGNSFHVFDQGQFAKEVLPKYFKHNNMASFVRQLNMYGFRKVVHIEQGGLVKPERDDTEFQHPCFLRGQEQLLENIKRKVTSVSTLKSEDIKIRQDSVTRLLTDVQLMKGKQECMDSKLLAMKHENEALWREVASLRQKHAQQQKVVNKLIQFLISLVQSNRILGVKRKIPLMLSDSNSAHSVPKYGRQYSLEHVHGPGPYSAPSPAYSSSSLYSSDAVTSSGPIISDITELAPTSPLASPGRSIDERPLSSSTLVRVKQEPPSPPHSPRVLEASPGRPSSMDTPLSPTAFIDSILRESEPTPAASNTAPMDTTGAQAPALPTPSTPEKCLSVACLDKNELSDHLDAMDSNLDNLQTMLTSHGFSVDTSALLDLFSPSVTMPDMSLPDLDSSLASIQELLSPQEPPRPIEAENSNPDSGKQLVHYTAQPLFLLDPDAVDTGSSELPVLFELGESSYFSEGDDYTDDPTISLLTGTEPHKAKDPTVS

Chain of Cytochrome P450 2C9 (P11712 whole entry): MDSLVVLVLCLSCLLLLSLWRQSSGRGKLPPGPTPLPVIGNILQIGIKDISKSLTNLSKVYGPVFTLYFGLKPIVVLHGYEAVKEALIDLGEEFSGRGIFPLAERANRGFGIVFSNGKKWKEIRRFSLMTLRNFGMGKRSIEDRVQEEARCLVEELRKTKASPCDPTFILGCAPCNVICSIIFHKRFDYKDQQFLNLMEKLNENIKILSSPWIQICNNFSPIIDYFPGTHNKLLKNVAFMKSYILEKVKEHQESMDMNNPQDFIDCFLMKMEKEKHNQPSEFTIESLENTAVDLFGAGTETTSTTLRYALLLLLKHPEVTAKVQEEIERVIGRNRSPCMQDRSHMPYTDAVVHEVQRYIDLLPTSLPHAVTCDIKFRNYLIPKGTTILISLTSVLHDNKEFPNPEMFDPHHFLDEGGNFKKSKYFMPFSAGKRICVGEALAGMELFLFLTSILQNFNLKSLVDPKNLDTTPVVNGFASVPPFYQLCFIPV
Chain of Cytochrome P450 3A4 (P08684 whole entry): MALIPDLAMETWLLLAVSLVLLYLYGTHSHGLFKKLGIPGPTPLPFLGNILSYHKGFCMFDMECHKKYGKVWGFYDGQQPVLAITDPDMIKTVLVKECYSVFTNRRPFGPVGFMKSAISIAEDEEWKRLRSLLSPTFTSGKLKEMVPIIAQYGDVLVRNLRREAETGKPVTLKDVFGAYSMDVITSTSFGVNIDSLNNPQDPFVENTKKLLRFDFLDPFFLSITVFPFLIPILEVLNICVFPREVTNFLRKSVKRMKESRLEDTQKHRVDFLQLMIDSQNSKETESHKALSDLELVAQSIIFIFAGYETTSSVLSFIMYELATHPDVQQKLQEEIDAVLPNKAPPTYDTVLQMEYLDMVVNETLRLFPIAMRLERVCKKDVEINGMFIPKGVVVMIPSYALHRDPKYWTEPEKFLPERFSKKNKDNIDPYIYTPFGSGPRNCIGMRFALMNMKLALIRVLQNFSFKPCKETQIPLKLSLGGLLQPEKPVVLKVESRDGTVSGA
Chain of FAD-linked sulfhydryl oxidase ALR (P55789 whole entry): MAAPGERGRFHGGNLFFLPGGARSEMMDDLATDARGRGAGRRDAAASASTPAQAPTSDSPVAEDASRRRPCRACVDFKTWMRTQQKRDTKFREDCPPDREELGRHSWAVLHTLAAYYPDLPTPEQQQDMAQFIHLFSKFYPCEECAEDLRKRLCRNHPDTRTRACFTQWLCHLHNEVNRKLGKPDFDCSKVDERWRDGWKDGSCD
Chain of Cytochrome P450 2C19 (P33261 whole entry): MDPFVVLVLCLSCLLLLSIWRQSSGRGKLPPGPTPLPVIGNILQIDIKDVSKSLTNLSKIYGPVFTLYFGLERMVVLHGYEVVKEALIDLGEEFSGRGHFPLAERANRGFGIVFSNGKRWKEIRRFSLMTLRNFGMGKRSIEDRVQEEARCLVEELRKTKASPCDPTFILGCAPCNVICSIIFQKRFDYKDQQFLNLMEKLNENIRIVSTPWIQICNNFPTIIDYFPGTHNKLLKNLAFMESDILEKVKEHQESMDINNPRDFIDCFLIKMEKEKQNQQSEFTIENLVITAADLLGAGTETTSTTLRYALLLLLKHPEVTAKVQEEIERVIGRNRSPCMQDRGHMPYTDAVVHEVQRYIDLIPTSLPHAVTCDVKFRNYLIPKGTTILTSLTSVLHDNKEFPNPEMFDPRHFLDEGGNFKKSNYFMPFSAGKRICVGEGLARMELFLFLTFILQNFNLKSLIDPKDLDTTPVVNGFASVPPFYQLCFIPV

SMILES: Cc1ccc(C(=O)NC(=S)N2CC(C)OC(C)C2)cc1[N+](=O)[O-] (centres undefined)
- AC50 [1]: inconclusive
- AC50 [2]: 14.1 µM (inconclusive)
- AC50 [3]: 22.4 µM (inconclusive)
- AC50 [4]: 15.8 µM (inconclusive)

SMILES: COC(=O)c1ccc(S(=O)(=O)N2CCc3ccccc32)cc1
- EC50 [5]: > 60 µM (not active)
- EC50 [6]: > 120 µM (not active)
- EC50 [7]: > 120 µM (not active)

SMILES: CSc1ccc(CNc2ncc(-c3cccc([N+](=O)[O-])c3)n2C)cc1
- IC50 [8]: 21.8 µM (active)

SMILES: C=CCNC(=O)/C(=C\c1ccc2c(c1)OCO2)NC(=O)c1ccc(Br)cc1
- AC50 [2]: 5.62 µM (inconclusive)
- AC50 [4]: 14.1 µM (inconclusive)

SMILES: O=C(CCc1ccccc1)NC1C2CC3CC(C2)CC1C3 (centres undefined)
- IC50 [8]: 18.6 µM (active)

SMILES: CC(C)N1CCN(Cc2c[nH]c3ccccc23)CC1CCO (centres undefined)
- AC50 [9]: 28.6 µM (active)

SMILES: O=C(O)c1ccc(Sc2nnc(-c3cccc(Br)c3)o2)c([N+](=O)[O-])c1
- AC50 [10]: 0.044 µM (active)

SMILES: Cc1cccc(-n2c(N)c(C(=O)NCCN3CCOCC3)c3nc4ccccc4nc32)c1
- EC50 [5]: > 120 µM (not active)
- EC50 [6]: > 120 µM (not active)
- EC50 [7]: > 120 µM (not active)

SMILES: COc1ccc(N(C)C(=O)c2cc3c(s2)-c2ccccc2OC3)c(OC)c1
- CC50 [11]: 48.3 µM (active)

SMILES: CN1CCC(c2c[nH]c3ccc(O)cc23)CC1
- AC50 [3]: 15.8 µM (inconclusive) and 31.6 µM (inconclusive)
- AC50 [4]: 31.6 µM (inconclusive)

SMILES: N#Cc1cc2cc3c(cc2nc1N1CCCCC1)OCCO3
- EC50 [5]: 1.82 µM (active)
- EC50 [6]: 1.42 µM (active)
- EC50 [7]: 0.139 µM (active)

SMILES: Cc1cc(C)nc(Nc2n[nH]c(-c3ccc(N)cc3)n2)n1
- AC50 [10]: 0.311 µM (active)

SMILES: O=C(CCN1C[C@H]2CC[C@H](CC2)C1)c1cccs1
- AC50 [4]: 5.01 µM (inconclusive)

SMILES: N#CC1CCCc2c1[nH]c1ccc([N+](=O)[O-])cc21 (centres undefined)
- EC50 [12]: 11.7 µM (active)
- EC50 [13]: > 120 µM (not active)
- EC50 [14]: 24.5 µM (active)
- CC50 [11]: 27.8 µM (active)

SMILES: CN1CCc2nc(SCC(=O)OC(C)(C)C)c(C#N)cc2C1
- EC50 [5]: 15.4 µM (active)
- EC50 [6]: 108 µM (active)
- EC50 [7]: 20.8 µM (active)

SMILES: COc1ccc(N2CCN(C(=O)Cc3ccc(C)cc3)CC2)cc1
- AC50 [10]: 5.48 µM (active)

SMILES: Cn1c(=O)c(-c2cccs2)nc2cnc(N3CCOCC3)nc21
- AC50 [4]: 5.01 µM (inconclusive)

SMILES: CC(=O)Nc1ccc(S(=O)(=O)N2CCC(c3nc4cc(C)ccc4[nH]3)CC2)cc1
- CC50 [11]: 15.4 µM (active)

SMILES: NC(=NO)c1ccccc1N1CCC(Cc2ccccc2)CC1
- AC50 [10]: 27.4 µM (active)

SMILES: C=CCN1C[C@H](C)N([C@@H](c2ccccc2)c2ccc(C(=O)N(CC)CC)cc2)C[C@H]1C
- AC50 ([1]; read-out: AC50): 0.0631 µM (inconclusive)
- AC50 [2]: 31.6 µM (inconclusive)
- AC50 [3]: 2.51 µM (inconclusive)
- AC50 [4]: 31.6 µM (inconclusive)

SMILES: Cc1ccc(C(=O)C2=C(O)C(=O)N(Cc3cccnc3)C2c2ccccc2[N+](=O)[O-])cc1 (centres undefined)
- EC50 [5]: 14.9 µM (active)
- EC50 [6]: > 120 µM (not active)
- EC50 [7]: 30.1 µM (active)

SMILES: CCOc1ccc(NC(=O)COC(=O)C2(C)CC2(Cl)Cl)c([N+](=O)[O-])c1 (centres undefined)
- EC50 [15]: > 195 µM (not active)
- IC50 [8]: 38.4 µM (active)

SMILES: CCN(CC)CC(=O)Nc1ccc2c(c1)Nc1ccccc1CC2
- AC50 [10]: 0.221 µM (active)

SMILES: Nc1cccc(OCc2nc(N)nc(N)c2-c2ccc(Cl)cc2)c1
- AC50 [4]: 0.158 µM (inconclusive)

SMILES: CC(CN1CCN(c2ccccc2)CC1)c1ccccc1 (centres undefined)
- AC50 [10]: 66.9 µM (active)

SMILES: Cc1cn(CCC(=O)Nc2ccc(N3CCOCC3)cc2)c2ccccc12
- EC50 [5]: 16.1 µM (active)
- EC50 [6]: 13.9 µM (active)
- EC50 [7]: 11.5 µM (active)

SMILES: Fc1cccc2sc(Nc3nc4ccccc4s3)nc12
- EC50 [5]: 4.21 µM (active)
- EC50 [6]: 1.58 µM (active)
- EC50 [7]: 0.106 µM (active)

SMILES: CCC/C=C(\CCC)C(NC(=O)c1ccc(C(F)(F)F)cc1)c1ccccc1 (centres undefined)
- AC50 [2]: 3.16 µM (inconclusive)
- AC50 [4]: 25.1 µM (inconclusive)

SMILES: Cc1cc(NS(=O)(=O)c2ccccc2)c(C)c(Cl)c1O
- CC50 [11]: 8.98 µM (active)

SMILES: COc1cccc(COC(=O)CCNC(=O)c2ccc(Br)cc2)c1OC
- IC50 [8]: 15.4 µM (active)

SMILES: Cc1cc(C)n(CCC(=O)N2CCCC(Nc3ccc(F)cc3)C2)n1 (centres undefined)
- AC50 [10]: 33.3 µM (active)

SMILES: Cc1ccc(S(=O)(=O)Oc2cc(S(=O)(=O)O)cc3cc(S(=O)(=O)O)cc(N)c23)cc1
- AC50 [4]: 2 µM (inconclusive)

SMILES: CCn1c2ccccc2c2cnc(/N=C/N(C)C)c(C#N)c21
- CC50 [11]: 37 µM (active)

SMILES: C/C(=N/OCC(=O)Nc1ccccc1)c1cccs1
- EC50 [5]: 26.4 µM (active)
- EC50 [6]: 16.8 µM (active)
- EC50 [7]: 13.4 µM (active)

SMILES: Sc1nnc(-c2ccccn2)n1/N=C/c1ccc(Br)s1
- AC50 [10]: 10.5 µM (active)
